How the values were obtained:
[1] = tested on: strain of German cockroaches that is susceptible to insecticides; experiment: Topical application test on male adult German cockroach, insecticide-susceptible strain; assay type: in vivo; details: 1 μL acetone solution applied to ventral surface of thorax of male adult; mortality after 4 days; Probit method
Experimental: (§1) An acetone solution comprising a prescribed concentration of each of permethrin, deltamethrin, fipronil, indoxacarb, fluxametamide, broflanilide, nicofluprole, cyproflanilide, or isocycloseram was prepared, and 1 μL of the acetone solution was applied to a ventral surface of thorax of a male adult of German cockroach. Two strains of German cockroaches, i.e., the strain of German cockroaches that is susceptible to insecticides and the strain of German cockroaches that is resistant to multiple insecticides, were used. The strain of German cockroaches that is resistant to multiple insecticides is highly resistant to pyrethroid compounds, phenylpyrazole compounds, and oxadiazine compounds. As the resistance mechanism, the strain has the L993F mutation of voltage-dependent sodium channel resulting in pyrethroid resistance, the A302S mutation of GABAergic chloride ion channel resulting in dieldrin resistance, and enhanced metabolic detoxification activities. The application concentrations were three or more concentrations resulting in 0 to 100% of mortality of insects (comprising one or more concentrations resulting in less than 50% mortality of insects, and one or more concentrations resulting in more than 50% mortality of insects), and the number of test insects per concentration was ten in duplicate. After 4 days, the number of dead German cockroach(es) was investigated, and LD50 value was calculated by the Probit method. The mortalities of insects of 0% and 100% were corrected by the method of Miller and Tainter represented by the following formula (1), and corrected mortalities of insects were used when LD50 values were calculated. The resistance ratio was calculated according to the following formula (2) by using the obtained LD50 values. In this test, a dead insect refers to an insect in which the action was completely stopped.

[2] = tested on: strain of German cockroaches that is resistant to multiple insecticides; experiment: Topical application test on male adult German cockroach, multiple-insecticide-resistant strain; assay type: in vivo; details: for LD50 Resistant: 1 μL acetone solution applied to ventral surface of thorax of male adult, mortality after 4 days, Probit method, strain with L993F sodium channel and A302S GABAergic chloride channel mutations and enhanced metabolic detoxification; for Resistance ratio: calculated by formula (2) from the LD50 values of the resistant and susceptible strains; for Control of harmful arthropods showing high resistance to permethrin, deltamethrin, fipronil, indoxacarb and fluxametamide: conclusion drawn from Table 1
Experimental: as §1

Row | Compound | LD50 Susceptible [1] | LD50 Resistant [2] | Resistance ratio [2] | Control of harmful arthropods showing high resistance to permethrin, deltamethrin, fipronil, indoxacarb and fluxametamide [2]
1 | CN(C(=O)c1ccccc1)c1cccc(C(=O)Nc2c(Br)cc(C(F)(C(F)(F)F)C(F)(F)F)cc2C(F)(F)F)c1F [Broflanilide, broflanilide] | 0.0093 μg/insect | 0.021 μg/insect | 2.3 | can effectively control
2 | O=C(Nc1c(Br)cc(C(F)(C(F)(F)F)C(F)(F)F)cc1C(F)(F)F)c1cccc(N(CC2CC2)C(=O)c2ccc(F)cc2)c1F [Cyproflanilide, cyproflanilide] | 0.028 μg/insect | 0.035 μg/insect | 1.2 | can effectively control
3 | CC1(C)[C@H](C(=O)O[C@H](C#N)c2cccc(Oc3ccccc3)c2)[C@@H]1C=C(Br)Br [Deltamethrin, deltamethrin] | 0.016 μg/insect | 0.68 μg/insect | 43 | –
4 | N#Cc1nn(-c2c(Cl)cc(C(F)(F)F)cc2Cl)c(N)c1[S+]([O-])C(F)(F)F (stereo not shown) [Fipronil, fipronil] | 0.0034 μg/insect | 0.14 μg/insect | 41 | –
5 | CON=CNC(=O)c1ccc(C2=NOC(c3cc(Cl)cc(Cl)c3)(C(F)(F)F)C2)cc1C (stereo not shown) [Fluxametamide, fluxametamide] | 0.059 μg/insect | 2.7 μg/insect | 46 | –
6 | COC(=O)N(C(=O)N1CO[C@@]2(C(=O)OC)Cc3cc(Cl)ccc3C2=N1)c1ccc(OC(F)(F)F)cc1 [Indoxacarb, indoxacarb] | 0.25 μg/insect | >50 μg/insect | >200 | –
7 | CCN1OCC(NC(=O)c2ccc(C3=NOC(c4cc(Cl)c(F)c(Cl)c4)(C(F)(F)F)C3)cc2C)C1=O (stereo not shown) [Isocycloseram, isocycloseram] | 0.059 μg/insect | 0.10 μg/insect | 1.7 | can effectively control
8 | CN(C(=O)c1cc(-c2cnn(-c3c(Cl)cc(C(F)(C(F)(F)F)C(F)(F)F)cc3Cl)c2)cnc1Cl)C1CC1 [Nicofluprole, nicofluprole] | 0.0027 μg/insect | 0.0065 μg/insect | 2.4 | can effectively control
9 | CC1(C)C(C=C(Cl)Cl)C1C(=O)OCc1cccc(Oc2ccccc2)c1 (stereo not shown) [Permethrin, permethrin] | 0.28 μg/insect | >50 μg/insect | >180 | –

Reference: patent US20250064061A1, “METHOD FOR CONTROLLING NOXIOUS ARTHROPODS” (SUMITOMO CHEMICAL COMPANY, LIMITED, priority 2021, published 2025)
